Reference: patent US20100298141A1, “SUBSTITUTED PYRIDINE N-OXIDE HERBICIDES” (E. I. DU PONT DE NEMOURS AND COMPANY, priority 2007, published 2010)

Columns and labels:
millet = assay: Test G preemergence test; assay type: in vivo, Panicum miliaceum; conditions: scale 0 to 100
barnyardgrass = assay: Test B flooded paddy test; assay type: in vivo, Echinochloa crus-galli; conditions: Flood, 250 g ai/ha, 13 to 15 days; scale 0 to 100, 0 no effect, 100 complete control
Description: (§1) At time of treatment, test pots were flooded to 3 cm above the soil surface, treated by application of test compounds directly to the paddy water, and then maintained at that water depth for the duration of the test. Treated plants and controls were maintained in a greenhouse for 13 to 15 days, after which time all species were compared to controls and visually evaluated. […] A dash (-) response means no test result.

large crabgrass = assay: Test G preemergence test; assay type: in vivo, Digitaria sanguinalis; conditions: scale 0 to 100
downy bromegrass = assay: Test D preemergence test; assay type: in vivo, Bromus tectorum; conditions: scale 0 to 100
Description: (§2) Seeds of plant species selected from annual bluegrass (Poa annua), blackgrass (Alopecurus myosuroides), downy bromegrass (Bromus tectorum), field violet (Viola arvensis), green foxtail (Setaria viridis), Italian ryegrass (Lolium multiflorum), littleseed canarygrass (Phalaris minor), spring wheat (Triticum aestivum), wild oat (Avena fatua), […]), winter barley (Hordeum vulgare), and winter wheat (Triticum aestivum) were planted and treated preemergence with test chemicals formulated in a non-phytotoxic solvent mixture which included a surfactant. […] A dash (-) response means no test result.

itchgrass = assay: Test G preemergence test; assay type: in vivo, Rottboellia cochinchinensis; conditions: scale 0 to 100
winter wheat = assay: Test D preemergence test; assay type: in vivo, Triticum aestivum; conditions: scale 0 to 100
In short: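 Test chemicals, formulated in a surfactant-containing non-phytotoxic solvent mixture, are applied preemergence after the seeds are planted. Entries shown as a dash mean no result was obtained.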

Redstem = assay: Test C flooded paddy test; assay type: in vivo; conditions: Flood
Description: as §1

Ricefield Bulrush = assay: Test C flooded paddy test; assay type: in vivo; conditions: Flood
Description: as §1

green foxtail = assay: Test D preemergence test; assay type: in vivo, Setaria viridis; conditions: scale 0 to 100
Description: as §2

winter barley = assay: Test D preemergence test; assay type: in vivo, Hordeum vulgare
Description: as §2

[1] = 31 g ai/ha, scale 0 to 100 (0 no effect, 100 complete control)
[2] = 62 g ai/ha, scale 0 to 100, 0 no effect, 100 complete control, 13 to 15 days
[3] = 125 g ai/ha, scale 0 to 100, 0 no effect, 100 complete control, 13 to 15 days
[4] = 250 g ai/ha, scale 0 to 100 (0 no effect, 100 complete control)
[5] = Preemergence, 62 g ai/ha, scale 0 to 100
[6] = Preemergence, 125 g ai/ha, scale 0 to 100
[7] = Preemergence, 31 g ai/ha, scale 0 to 100
[8] = preemergence, 250 g ai/ha, scale 0 (no effect) to 100 (complete control)

## Cc1cc[n+]([O-])c([S+]([O-])Cc2c(C(F)(F)F)nn(C)c2OC(F)F)c1 (stereo not shown) [Compound 1]
millet; 31 g ai/ha
  Plant response rating, Millet: 0
millet; 62 g ai/ha
  Plant response rating, Millet: 25
millet; 125 g ai/ha
  Plant response rating, Millet: 20
millet; 250 g ai/ha
  Plant response rating, Millet: 100
barnyardgrass
  Plant response rating, Barnyardgrass: 80
Large crabgrass; 31 g ai/ha
  Plant response rating, Crabgrass, Large: 10
Large crabgrass; 62 g ai/ha
  Plant response rating, Crabgrass, Large: 100
Large crabgrass; 125 g ai/ha
  Plant response rating, Crabgrass, Large: 100
Large crabgrass; 250 g ai/ha
  Plant response rating, Crabgrass, Large: 100
Downy bromegrass; 31 g ai/ha
  Plant response rating, Bromegrass, Downy: 0
Downy bromegrass; 62 g ai/ha
  Plant response rating, Bromegrass, Downy: 30
Downy bromegrass; 125 g ai/ha
  Plant response rating, Bromegrass, Downy: 40
Downy bromegrass; 250 g ai/ha
  Plant response rating, Bromegrass, Downy: 40
itchgrass; 31 g ai/ha
  Plant response rating, Itchgrass: 20
itchgrass; 62 g ai/ha
  Plant response rating, Itchgrass: 35
itchgrass; 125 g ai/ha
  Plant response rating, Itchgrass: 40
itchgrass; 250 g ai/ha
  Plant response rating, Itchgrass: 60
Winter wheat; 31 g ai/ha
  Plant response rating, Wheat, Winter: 0
Winter wheat; 62 g ai/ha
  Plant response rating, Wheat, Winter: 5
Winter wheat; 125 g ai/ha
  Plant response rating, Wheat, Winter: 50
Winter wheat; 250 g ai/ha
  Plant response rating, Wheat, Winter: 60
Redstem; [1]
  Plant response rating, Redstem: 40
Redstem; [2]
  Plant response rating, Redstem: 60
Redstem; [3]
  Plant response rating, Redstem: 80
Redstem; [4]
  Plant response rating, Redstem: 85
Ricefield Bulrush; [1]
  Plant response rating, Ricefield Bulrush: 75
Ricefield Bulrush; [2]
  Plant response rating, Ricefield Bulrush: 75
Ricefield Bulrush; [3]
  Plant response rating, Ricefield Bulrush: 75
Ricefield Bulrush; [4]
  Plant response rating, Ricefield Bulrush: 85
Green foxtail; 31 g ai/ha
  Plant response rating, Foxtail, Green: 0
Green foxtail; 62 g ai/ha
  Plant response rating, Foxtail, Green: 95
Green foxtail; 125 g ai/ha
  Plant response rating, Foxtail, Green: 100
Green foxtail; 250 g ai/ha
  Plant response rating, Foxtail, Green: 100
Winter barley; [5]
  Plant response rating, Barley: 0
Winter barley; [6]
  Plant response rating, Barley: 40
Winter barley; [7]
  Plant response rating, Barley: 0
Winter barley; [8]
  Plant response rating, Barley: 50

## Cn1nc(C(F)(F)F)c(CS(=O)(=O)c2cccc[n+]2[O-])c1OC(F)F [Compound 4]
millet; 31 g ai/ha
  Plant response rating, Millet: 20
millet; 62 g ai/ha
  Plant response rating, Millet: 40
millet; 125 g ai/ha
  Plant response rating, Millet: 40
millet; 250 g ai/ha
  Plant response rating, Millet: 100
barnyardgrass
  Plant response rating, Barnyardgrass: 80
Large crabgrass; 31 g ai/ha
  Plant response rating, Crabgrass, Large: 85
Large crabgrass; 62 g ai/ha
  Plant response rating, Crabgrass, Large: 80
Large crabgrass; 125 g ai/ha
  Plant response rating, Crabgrass, Large: 95
Large crabgrass; 250 g ai/ha
  Plant response rating, Crabgrass, Large: 100
Downy bromegrass; 31 g ai/ha
  Plant response rating, Bromegrass, Downy: 30
Downy bromegrass; 62 g ai/ha
  Plant response rating, Bromegrass, Downy: 30
Downy bromegrass; 125 g ai/ha
  Plant response rating, Bromegrass, Downy: 30
Downy bromegrass; 250 g ai/ha
  Plant response rating, Bromegrass, Downy: 30
itchgrass; 31 g ai/ha
  Plant response rating, Itchgrass: 0
itchgrass; 62 g ai/ha
  Plant response rating, Itchgrass: 20
itchgrass; 125 g ai/ha
  Plant response rating, Itchgrass: 30
itchgrass; 250 g ai/ha
  Plant response rating, Itchgrass: 60
Winter wheat; 31 g ai/ha
  Plant response rating, Wheat, Winter: 30
Winter wheat; 62 g ai/ha
  Plant response rating, Wheat, Winter: 20
Winter wheat; 125 g ai/ha
  Plant response rating, Wheat, Winter: 25
Winter wheat; 250 g ai/ha
  Plant response rating, Wheat, Winter: 45
Redstem; [1]
  Plant response rating, Redstem: 40
Redstem; [2]
  Plant response rating, Redstem: 55
Redstem; [3]
  Plant response rating, Redstem: 85
Redstem; [4]
  Plant response rating, Redstem: 80
Ricefield Bulrush; [1]
  Plant response rating, Ricefield Bulrush: 0
Ricefield Bulrush; [2]
  Plant response rating, Ricefield Bulrush: 0
Ricefield Bulrush; [3]
  Plant response rating, Ricefield Bulrush: 60
Ricefield Bulrush; [4]
  Plant response rating, Ricefield Bulrush: 80
Green foxtail; 31 g ai/ha
  Plant response rating, Foxtail, Green: 40
Green foxtail; 62 g ai/ha
  Plant response rating, Foxtail, Green: 50
Green foxtail; 125 g ai/ha
  Plant response rating, Foxtail, Green: 50
Green foxtail; 250 g ai/ha
  Plant response rating, Foxtail, Green: 100
Winter barley; [5]
  Plant response rating, Barley: 30
Winter barley; [6]
  Plant response rating, Barley: 30
Winter barley; [7]
  Plant response rating, Barley: 30
Winter barley; [8]
  Plant response rating, Barley: 35

## Cn1nc(C(F)(F)F)c(CS(=O)(=O)c2ccc(Cl)c[n+]2[O-])c1OC(F)F [Compound 7]
millet; 31 g ai/ha
  Plant response rating, Millet: 0
millet; 62 g ai/ha
  Plant response rating, Millet: 55
millet; 125 g ai/ha
  Plant response rating, Millet: 85
millet; 250 g ai/ha
  Plant response rating, Millet: 100
barnyardgrass
  Plant response rating, Barnyardgrass: 80
Large crabgrass; 31 g ai/ha
  Plant response rating, Crabgrass, Large: 0
Large crabgrass; 62 g ai/ha
  Plant response rating, Crabgrass, Large: 0
Large crabgrass; 125 g ai/ha
  Plant response rating, Crabgrass, Large: 20
Large crabgrass; 250 g ai/ha
  Plant response rating, Crabgrass, Large: 90
Downy bromegrass; 31 g ai/ha
  Plant response rating, Bromegrass, Downy: 0
Downy bromegrass; 62 g ai/ha
  Plant response rating, Bromegrass, Downy: 20
Downy bromegrass; 125 g ai/ha
  Plant response rating, Bromegrass, Downy: 25
Downy bromegrass; 250 g ai/ha
  Plant response rating, Bromegrass, Downy: 35
itchgrass; 31 g ai/ha
  Plant response rating, Itchgrass: 0
itchgrass; 62 g ai/ha
  Plant response rating, Itchgrass: 0
itchgrass; 125 g ai/ha
  Plant response rating, Itchgrass: 25
itchgrass; 250 g ai/ha
  Plant response rating, Itchgrass: 25
Winter wheat; 31 g ai/ha
  Plant response rating, Wheat, Winter: 0
Winter wheat; 62 g ai/ha
  Plant response rating, Wheat, Winter: 0
Winter wheat; 125 g ai/ha
  Plant response rating, Wheat, Winter: 0
Winter wheat; 250 g ai/ha
  Plant response rating, Wheat, Winter: 0
Green foxtail; 31 g ai/ha
  Plant response rating, Foxtail, Green: 0
Green foxtail; 62 g ai/ha
  Plant response rating, Foxtail, Green: 20
Green foxtail; 125 g ai/ha
  Plant response rating, Foxtail, Green: 20
Green foxtail; 250 g ai/ha
  Plant response rating, Foxtail, Green: 55
Winter barley; [5]
  Plant response rating, Barley: 0
Winter barley; [6]
  Plant response rating, Barley: 0
Winter barley; [7]
  Plant response rating, Barley: 0
Winter barley; [8]
  Plant response rating, Barley: 0
